This note sets out measurements from ChEMBL document CHEMBL2390896, “Synthesis, enzymatic stability and in vitro cytostatic effect of Daunorubicin-GnRH-III derivative dimers” (Bioorg Med Chem Lett, 2013).

Data set [1] in a line: Prodrug conversion in rat liver lysosomal homogenate assessed as H-Lys(Dau=Aoa-Cys)-OH formation at 0.1 ug/uL after 24 hrs by LC-MS analysis. It is filed as ADME, tissue-based.
A further data set relates to MCF7. Nature of the data set: Cytostatic activity against human MCF7 cells after 72 hrs by MTT assay. It is filed as functional, cell-based. The settings on record: MCF7, 72 h. (In general: Tetrazolium assays rely on reduction of a dye to a coloured formazan, in cell work by metabolically active cells.)
The nature of data set [2]: Proteolytic stability in Tris-HCl/CaCl2 buffer at pH 7.8 in presence of alpha-chymotrypsin assessed as compound degradation at 0.1 ug/uL after 6 hrs by mass spectrometry. It is filed as ADME. The settings on record: pH 7.8, 6 h.
Data set [3] can be described thus: Proteolytic stability in Tris-HCl/CaCl2 buffer at pH 7.8 in presence of alpha-chymotrypsin assessed as intact parent compound at 0.1 ug/uL measured after 24 hrs by mass spectrometry. It is filed as ADME. The conditions noted are these: pH 7.8, 24 h.
The nature of data set [4]: Proteolytic stability in Tris-HCl/CaCl2 buffer at pH 7.8 in presence of alpha-chymotrypsin assessed as cleavage of compound at -3Trp-4Xxx- in second arm of dimer at 0.1 ug/uL after 24 hrs by mass spectrometry. Type of data set: ADME. The conditions noted are these: pH 7.8, 24 h.
Data set [5] in a line: Proteolytic stability in Tris-HCl/CaCl2 buffer at pH 7.8 in presence of alpha-chymotrypsin assessed as cleavage of compound at -3Trp-4Xxx- in second arm of dimer at 0.1 ug/uL after 4 hrs by mass spectrometry. It is filed as ADME. The settings on record: pH 7.8, 4 h.
The nature of data set [6]: Proteolytic stability in Tris-HCl/CaCl2 buffer at pH 7.8 in presence of alpha-chymotrypsin assessed as cleavage of compound at -3Trp-4Xxx- in one arm of dimer at 0.1 ug/uL measured after 1 hr by mass spectrometry. It is filed as ADME. The conditions noted are these: pH 7.8, 1 h.
Data set [7] in a line: Proteolytic stability in 0.1 % formic acid at pH 1.8 in presence of pepsin after 24 hrs by mass spectrometry. It is filed as ADME. The settings on record: isolated protein, pH 1.8, 24 h.
Data set [8] in a line: Proteolytic stability in NH4HCO3 buffer at pH 8.0 in presence of trypsin at 0.1 ug/uL after 24 hrs by mass spectrometry. Type of data set: ADME. The settings on record: isolated protein, pH 8, 24 h.
A short description of data set [9]: Prodrug conversion in rat liver lysosomal homogenate assessed as free daunorubicin at 0.1 ug/uL after 24 hrs by LC-MS analysis. Type of data set: ADME, tissue-based.
Data set [10] is described as follows: Chemical stability of the compound in aqueous solution after 24 hrs by LC-MS analysis. Type of data set: physicochemical. The settings on record: buffer.
A short description of data set [11]: Prodrug conversion in rat liver lysosomal homogenate assessed as {[H-Lys(Dau=Aoa-Cys)-OH] [H-Lys(Dau=Aoa-Cys)P-OH]} formation at 0.1 ug/uL after 24 hrs by LC-MS analysis. Type of data set: ADME, tissue-based.
In a further data set the test system is Serum. Briefly: Metabolic stability in human serum at 10 uM after 24 hrs by LC-MS analysis. It is filed as ADME, cell-free.
Data set [12] in a line: Drug metabolism in rat liver lysosomal homogenate assessed as [H-Lys(Dau=Aoa-Cys)-OH]2 formation at 0.1 ug/uL after 24 hrs by LC-MS analysis. It is filed as ADME, tissue-based. The settings on record: tissue homogenate.

As to `COc1cccc2c1C(=O)c1c(O)c3c(c(O)c1C2=O)C[C@@](O)(/C(C)=N/OCC(=O)NCCCC[C@H](NC(=O)[C@H](Cc1c[nH]c2ccccc12)NC(=O)[C@H](CC(=O)O)NC(=O)[C@H](Cc1cnc[nH]1)NC(=O)[C@H](CO)N(C)C(=O)[C@H](Cc1c[nH]c2ccccc12)NC(=O)[C@H](Cc1cnc[nH]1)NC(=O)[C@@H]1CCC(=O)N1)C(=O)N1CCC[C@H]1C(=O)NCC(N)=O)C[C@@H]3O[C@H]1C[C@H](N)[C@H](O)[C@H](C)O1`, the Drug metabolism entry in data set [1] is “Active”. The same molecule had a 50% inhibitory concentration (IC50) in the data set on MCF7 of 10.6 µM.
Consider `COc1cccc2c1C(=O)c1c(O)c3c(c(O)c1C2=O)C[C@@](O)(/C(C)=N/OCC(=O)N[C@@H](CSSC[C@H](NC(=O)CO/N=C(\C)[C@]1(O)Cc2c(O)c4c(c(O)c2[C@@H](O[C@H]2C[C@H](N)[C@H](O)[C@H](C)O2)C1)C(=O)c1c(OC)cccc1C4=O)C(=O)NCCCC[C@H](NC(=O)[C@H](Cc1c[nH]c2ccccc12)NC(=O)[C@H](CC(=O)O)NC(=O)[C@H](Cc1cnc[nH]1)NC(=O)[C@H](CO)NC(=O)[C@H](Cc1c[nH]c2ccccc12)NC(=O)[C@H](Cc1cnc[nH]1)NC(=O)[C@@H]1CCC(=O)N1)C(=O)N1CCC[C@H]1C(=O)NCC(N)=O)C(=O)NCCCC[C@H](NC(=O)[C@H](Cc1c[nH]c2ccccc12)NC(=O)[C@H](CC(=O)O)NC(=O)[C@H](Cc1cnc[nH]1)NC(=O)[C@H](CO)NC(=O)[C@H](Cc1c[nH]c2ccccc12)NC(=O)[C@H](Cc1cnc[nH]1)NC(=O)[C@@H]1CCC(=O)N1)C(=O)N1CCC[C@H]1C(=O)NCC(N)=O)C[C@@H]3O[C@H]1C[C@H](N)[C@H](O)[C@H](C)O1`, for which the Stability result was “Unstable” in [2]; “Stable” in data set [3]; “Stable” in [4]; “Stable” in data set [5]; “Unstable” in data set [6]; “Stable” in data set [7]. Also, the Stability result (in [8]; in data set [10]; in the data set with Serum) was “Stable” each time. The values for the Drug metabolism entry in data set [9] and in data set [11] were “Not Active” and “Active”, respectively. Moreover, the IC50 with MCF7 is 4.1 µM.
Regarding `COc1cccc2c1C(=O)c1c(O)c3c(c(O)c1C2=O)C[C@@](O)(/C(C)=N/OCC(=O)N[C@@H](CSSC[C@H](NC(=O)CO/N=C(\C)[C@]1(O)Cc2c(O)c4c(c(O)c2[C@@H](O[C@H]2C[C@H](N)[C@H](O)[C@H](C)O2)C1)C(=O)c1c(OC)cccc1C4=O)C(=O)NCCCC[C@H](NC(=O)[C@H](Cc1c[nH]c2ccccc12)NC(=O)[C@H](CC(=O)O)NC(=O)[C@H](Cc1cnc[nH]1)NC(=O)[C@H](CO)N(C)C(=O)[C@H](Cc1c[nH]c2ccccc12)NC(=O)[C@H](Cc1cnc[nH]1)NC(=O)[C@@H]1CCC(=O)N1)C(=O)N1CCC[C@H]1C(=O)NCC(N)=O)C(=O)NCCCC[C@H](NC(=O)[C@H](Cc1c[nH]c2ccccc12)NC(=O)[C@H](CC(=O)O)NC(=O)[C@H](Cc1cnc[nH]1)NC(=O)[C@H](CO)N(C)C(=O)[C@H](Cc1c[nH]c2ccccc12)NC(=O)[C@H](Cc1cnc[nH]1)NC(=O)[C@@H]1CCC(=O)N1)C(=O)N1CCC[C@H]1C(=O)NCC(N)=O)C[C@@H]3O[C@H]1C[C@H](N)[C@H](O)[C@H](C)O1`, the Stability result in [2] is “Unstable”; in [3] it was “Stable”; in data set [4], “Stable”; in data set [5] it was “Stable”; in [6], “Unstable”; in data set [7], “Stable”. The Stability entry (in data set [8]; in data set [10]; with Serum) was “Stable” each time. The Drug metabolism result in [12] was “Active”. The molecule also displayed an IC50 with MCF7 of 6.2 µM.

One may read the IC50 as the concentration that inhibits the measured activity by half. The low end stands for greater potency in that assay, the high end for weaker potency in that assay.
